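Method: 48-hour compound exposure of cells in 96-well plates, five concentrations, linear interpolation of endpoints. At the GI50, growth is halved. At the TGI there is no net growth.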
Legend:
Assay in all cases: NCI anticancer screen, dose series, 48 h
[1] = test system: KM12 colon
[2] = test system: OVCAR-3 ovarian
[3] = test system: MOLT-4 leukemia
[4] = test system: DU-145 prostate
[5] = test system: HS 578T breast
[6] = test system: PC-3 prostate
[7] = test system: HCT-116 colon
[8] = test system: U251 CNS
[9] = test system: HCC-2998 colon
[10] = test system: RXF 393 renal
[11] = test system: IGROV1 ovarian
[12] = test system: LOX IMVI melanoma
[13] = test system: HOP-92 NSCLC
[14] = test system: UACC-257 melanoma
[15] = test system: OVCAR-4 ovarian
[16] = test system: COLO 205 colon
[17] = test system: MCF7 breast
[18] = test system: TK-10 renal
[19] = test system: NCI/ADR-RES ovarian
[20] = test system: SF-295 CNS
[21] = test system: EKVX NSCLC
[22] = test system: CCRF-CEM leukemia
[23] = test system: SN12C renal
[24] = test system: SK-MEL-2 melanoma
[25] = test system: SNB-75 CNS
[26] = test system: CAKI-1 renal
[27] = test system: 786-0 renal
[28] = test system: HOP-62 NSCLC
[29] = test system: A549 NSCLC
[30] = test system: OVCAR-5 ovarian
[31] = test system: SK-MEL-5 melanoma
[32] = test system: RPMI-8226 leukemia
[33] = test system: SF-268 CNS
[34] = test system: K-562 leukemia
[35] = test system: MDA-MB-231 breast
[36] = test system: UO-31 renal
[37] = test system: HT29 colon
[38] = test system: A498 renal
[39] = test system: HL-60(TB) leukemia
[40] = test system: MALME-3M melanoma
[41] = test system: M14 melanoma
[42] = test system: HCT-15 colon
[43] = test system: NCI-H226 lung
[44] = test system: SNB-19 CNS
[45] = test system: NCI-H460 lung
[46] = test system: SK-OV-3 ovarian
[47] = test system: ACHN renal
[48] = test system: NCI-H23 lung
[49] = test system: NCI-H522 lung
[50] = test system: UACC-62 melanoma
[51] = test system: BT-549 breast
[52] = test system: OVCAR-8 ovarian
[53] = test system: T-47D breast
[54] = test system: SR leukemia
[55] = test system: SW-620 colon
[56] = test system: SF-539 CNS
[57] = test system: SK-MEL-28 melanoma
[58] = test system: MDA-MB-435
[59] = test system: MDA-N

`CC(C)COC(=O)c1ccc2[nH]c(O)c(C=Nc3ccc(S(N)(=O)=O)cc3)c2c1` gave a GI50 [1] of 1.06 µM, a TGI [1] of 3.87 µM and a GI50 [2] of 0.802 µM. For the same compound, the TGI [2] was 2.28 µM, the GI50 [3] was 1.68 µM and the TGI [3] was 11 µM. The GI50 [4] was 0.805 µM, the TGI [4] was 3.8 µM and the GI50 [5] was 1.45 µM. It also gave a TGI [5] of 6.07 µM, a GI50 [6] of 1.6 µM and a TGI [6] of 6.54 µM. The GI50 [7] was 0.613 µM, the TGI [7] was 3 µM and the GI50 [8] was 0.879 µM. It also gave a TGI [8] of 4.13 µM, a GI50 [9] of 3.27 µM and a TGI [9] of 9.03 µM. The GI50 [10] was 0.747 µM, the TGI [10] was 1.61 µM and the GI50 [11] was 1.75 µM. For the same compound, the TGI [11] was 8.01 µM, the GI50 [12] was 0.666 µM and the TGI [12] was 4.06 µM. It also gave a GI50 [13] of 1.45 µM, a TGI [13] of 4.22 µM and a GI50 [14] of 3.99 µM. It also gave a TGI [14] of 9.44 µM, a GI50 [15] of 2.39 µM and a TGI [15] of 7.79 µM. For the same compound, the GI50 [16] was 0.532 µM, the TGI [16] was 1.91 µM and the GI50 [17] was 1.24 µM. For the same compound, the TGI [17] was 4.5 µM, the GI50 [18] was 1.65 µM and the TGI [18] was 4.52 µM. For the same compound, the GI50 [19] was 5.36 µM, the TGI [19] was 21.2 µM and the GI50 [20] was 1.77 µM. For the same compound, the TGI [20] was 8.46 µM, the GI50 [21] was 3.97 µM and the TGI [21] was 15.6 µM. It also gave a GI50 [22] of 0.823 µM, a TGI [22] of 15.3 µM and a GI50 [23] of 1.21 µM. For the same compound, the TGI [23] was 7.94 µM, the GI50 [24] was 1.73 µM and the TGI [24] was 4.19 µM. For the same compound, the GI50 [25] was 1.77 µM, the TGI [25] was 5.15 µM and the GI50 [26] was 2.86 µM. For the same compound, the TGI [26] was 16.7 µM, the GI50 [27] was 1.21 µM and the TGI [27] was 4.24 µM. For the same compound, the GI50 [28] was 1.58 µM, the TGI [28] was 4.84 µM and the GI50 [29] was 1.74 µM. For the same compound, the TGI [29] was 5.88 µM, the GI50 [30] was 1.87 µM and the TGI [30] was 13.8 µM. The GI50 [31] was 1.65 µM, the TGI [31] was 4.46 µM and the GI50 [32] was 2.55 µM. The TGI [32] was 18.8 µM, the GI50 [33] was 1.22 µM and the TGI [33] was 4.45 µM. The GI50 [34] was 2.32 µM, the TGI [34] was 17.1 µM and the GI50 [35] was 0.915 µM. For the same compound, the TGI [35] was 6.76 µM, the GI50 [36] was 2.44 µM and the TGI [36] was 10.2 µM. For the same compound, the GI50 [37] was 1.63 µM, the TGI [37] was 5.21 µM and the GI50 [38] was 2.28 µM. For the same compound, the TGI [38] was 5.9 µM, the GI50 [39] was 0.68 µM and the TGI [39] was 2.38 µM. It also gave a GI50 [40] of 4.97 µM, a TGI [40] of 10.9 µM and a GI50 [41] of 1.25 µM. For the same compound, the TGI [41] was 4.8 µM, the GI50 [42] was 5.9 µM and the TGI [42] was 25 µM. It also gave a GI50 [43] of 1.73 µM, a TGI [43] of 6.79 µM and a GI50 [44] of 1.93 µM. For the same compound, the TGI [44] was 13.7 µM, the GI50 [45] was 0.787 µM and the TGI [45] was 3.41 µM. It also gave a GI50 [46] of 2.19 µM, a TGI [46] of 6.25 µM and a GI50 [47] of 0.885 µM. For the same compound, the TGI [47] was 5.8 µM, the GI50 [48] was 1.33 µM and the TGI [48] was 5.11 µM. For the same compound, the GI50 [49] was 4.03 µM, the TGI [49] was 8.5 µM and the GI50 [50] was 1.91 µM. The TGI [50] was 6.08 µM, the GI50 [51] was 1.65 µM and the TGI [51] was 4 µM. It also gave a GI50 [52] of 1.04 µM, a TGI [52] of 4.62 µM and a GI50 [53] of 2.51 µM. The TGI [53] was 12.6 µM, the GI50 [54] was 0.36 µM and the TGI [54] was 6.43 µM. The GI50 [55] was 0.671 µM, the TGI [55] was 3.83 µM and the GI50 [56] was 0.975 µM. The TGI [56] was 3.67 µM, the GI50 [57] was 1.69 µM and the TGI [57] was 4.75 µM. For the same compound, the GI50 [58] was 1.68 µM and the TGI [58] was 5.79 µM.

In the case of `CCc1n[nH]c(=O)n1CCO`, the TGI [1] is reported as > 100 µM, the TGI [2] is reported as > 100 µM and the TGI [3] is reported as > 100 µM. The TGI [4] was > 100 µM, the TGI [59] was > 100 µM and the TGI [6] was > 100 µM. The TGI [7] was > 100 µM, the TGI [8] was > 100 µM and the TGI [9] was > 100 µM. The TGI [11] was > 100 µM, the TGI [12] was > 100 µM and the TGI [13] was > 100 µM. For the same compound, the TGI [14] was > 100 µM, the TGI [15] was > 100 µM and the TGI [16] was > 100 µM. For the same compound, the TGI [17] was > 100 µM, the TGI [18] was > 100 µM and the TGI [19] was > 100 µM. The TGI [20] was > 100 µM, the TGI [21] was > 100 µM and the TGI [23] was > 100 µM. The TGI [24] was > 100 µM, the TGI [26] was > 100 µM and the TGI [27] was > 100 µM. For the same compound, the TGI [29] was > 100 µM, the TGI [30] was > 100 µM and the TGI [31] was > 100 µM. For the same compound, the TGI [32] was > 100 µM, the TGI [34] was > 100 µM and the TGI [35] was > 100 µM. For the same compound, the TGI [36] was > 100 µM, the TGI [37] was > 100 µM and the TGI [38] was > 100 µM. For the same compound, the TGI [39] was > 100 µM, the TGI [41] was > 100 µM and the TGI [42] was > 100 µM. The TGI [43] was > 100 µM, the TGI [44] was > 100 µM and the TGI [45] was > 100 µM. For the same compound, the TGI [46] was > 100 µM, the TGI [47] was > 100 µM and the TGI [48] was > 100 µM. The TGI [50] was > 100 µM, the TGI [51] was > 100 µM and the TGI [52] was > 100 µM. The TGI [53] was > 100 µM, the TGI [55] was > 100 µM and the TGI [56] was > 100 µM. The TGI [57] was > 100 µM and the TGI [58] was > 100 µM.

`Cc1ccc(S(=O)(=O)NNC2Oc3cc4c(cc3C(c3ccccc3O)C2C)OCO4)cc1` (stereo unspecified) showed a TGI [1] of 26.5 µM, a TGI [2] of 23.7 µM and a TGI [3] of 42.7 µM. For the same compound, the TGI [4] was 29.2 µM, the TGI [5] was 29.5 µM and the TGI [59] was 27 µM. The TGI [6] was 22.8 µM, the TGI [7] was 22.1 µM and the TGI [8] was 22 µM. The TGI [9] was 32.6 µM, the TGI [10] was 19.3 µM and the TGI [11] was 27.2 µM. It also gave a TGI [12] of 32.8 µM, a TGI [13] of 31.7 µM and a TGI [14] of 23.3 µM. It also gave a TGI [16] of 29.5 µM, a TGI [17] of 35.2 µM and a TGI [18] of 31.3 µM. The TGI [20] was 24.4 µM, the TGI [21] was 23.8 µM and the TGI [22] was 34.5 µM. It also gave a TGI [23] of 30.5 µM, a TGI [24] of 22.8 µM and a TGI [25] of 23.3 µM. The TGI [26] was 28.9 µM, the TGI [28] was 29.6 µM and the TGI [29] was 26.8 µM. It also gave a TGI [30] of 30.5 µM, a TGI [31] of 27.6 µM and a TGI [32] of 47.1 µM. The TGI [33] was 28.5 µM, the TGI [34] was 50.2 µM and the TGI [35] was 31.4 µM. The TGI [36] was 23 µM, the TGI [37] was 27.6 µM and the TGI [38] was 30.7 µM. It also gave a TGI [39] of 40.8 µM, a TGI [40] of 25.9 µM and a TGI [41] of 26.2 µM. It also gave a TGI [42] of 32 µM, a TGI [43] of 28.3 µM and a TGI [44] of 25.6 µM. It also gave a TGI [45] of 24.5 µM, a TGI [46] of 37.9 µM and a TGI [47] of 26 µM. It also gave a TGI [48] of 33 µM, a TGI [49] of 27.3 µM and a TGI [50] of 29.8 µM. For the same compound, the TGI [51] was 27.3 µM, the TGI [53] was 25.6 µM and the TGI [54] was 33.4 µM. For the same compound, the TGI [55] was 29.7 µM, the TGI [56] was 33.3 µM and the TGI [57] was 30.1 µM. For the same compound, the TGI [58] was 26.8 µM.
